Measured values published in US11331299B2, “Medicinal use of serrulatane diterpenes” (The University of Sydney, priority 2016, dated 2022).
Where two headings read alike, the source gives them in different places.

What was measured:
HDAC3 (h) = HDAC3 (h) (Homo sapiens, UniProt O15379); assay: Epigenetic enzyme assay, Histone deacetylase (HDACs); format: biochemical; settings: read-out: % Inhibition of Control Values
HCT-8 = assay: OncoPanel cell proliferation assay (10-day); format: cell-based, human; settings: for EC50 / GI50 / IC50: Homo sapiens, HCT-8, Colon; for EC50: read-out: Cell Count EC50; for GI50: read-out: Cell Count GI50; for IC50: read-out: Cell Count IC50
Histamine H4 = target: T1, Histamine H4 (Homo sapiens, UniProt Q9H3N8); assay: Histamine H4 radio ligand binding
T1 construct: expressed in transfected cells; host or cells: Chem-1 cells
T1 sequence (Q9H3N8 whole entry): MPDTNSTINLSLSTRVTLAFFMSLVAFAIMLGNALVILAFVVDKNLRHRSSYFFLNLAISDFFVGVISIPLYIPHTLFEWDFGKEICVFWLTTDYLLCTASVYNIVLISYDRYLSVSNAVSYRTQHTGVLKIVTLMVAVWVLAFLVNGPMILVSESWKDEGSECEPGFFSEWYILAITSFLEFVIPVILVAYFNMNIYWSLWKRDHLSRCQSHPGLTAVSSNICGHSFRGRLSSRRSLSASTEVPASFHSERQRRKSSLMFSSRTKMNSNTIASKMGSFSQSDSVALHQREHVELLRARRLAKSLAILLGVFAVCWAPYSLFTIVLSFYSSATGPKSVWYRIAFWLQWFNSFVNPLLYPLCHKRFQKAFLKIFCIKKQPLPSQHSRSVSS
Experimental: The in vitro pharmacological studies were conducted by Eurofins PanLab (Taiwan) using the parameters shown in Table 13 with respect to appropriate literature references.

CYP1A = target: T2, CYP1A (Homo sapiens, UniProt P05177); assay: Cytochrome P450 Inhibition (CYP panel); format: in vitro ADME; settings: probe phenacetin
T2 sequence (P05177 1-516): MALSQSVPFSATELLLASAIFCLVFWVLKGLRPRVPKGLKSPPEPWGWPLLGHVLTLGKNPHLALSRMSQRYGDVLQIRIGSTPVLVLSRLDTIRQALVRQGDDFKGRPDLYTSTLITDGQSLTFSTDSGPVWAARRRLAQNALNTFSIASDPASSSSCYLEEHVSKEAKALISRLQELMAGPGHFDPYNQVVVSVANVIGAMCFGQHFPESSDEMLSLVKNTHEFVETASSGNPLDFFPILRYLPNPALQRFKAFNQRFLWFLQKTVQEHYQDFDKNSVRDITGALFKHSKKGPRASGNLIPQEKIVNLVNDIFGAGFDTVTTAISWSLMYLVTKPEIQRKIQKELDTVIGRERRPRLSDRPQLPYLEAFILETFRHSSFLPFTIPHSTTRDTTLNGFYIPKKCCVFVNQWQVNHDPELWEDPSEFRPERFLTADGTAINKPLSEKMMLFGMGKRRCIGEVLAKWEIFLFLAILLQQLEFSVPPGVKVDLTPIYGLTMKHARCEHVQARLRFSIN

[1] = target: T3, CYP1A (Phenacetin Substrate) (Homo sapiens, UniProt P05177); assay: Cytochrome P450 Inhibition (CYP panel); format: in vitro ADME; settings: read-out: IC50 (estimated)
T3 sequence (P05177 1-516): T2 sequence (P05177 1-516)

HDAC7 (h) = target: T4, HDAC7 (h) (Homo sapiens, UniProt Q8WUI4); assay: Epigenetic enzyme assay, Histone deacetylase (HDACs); format: biochemical; settings: read-out: % Inhibition of Control Values
T4 sequence (Q8WUI4 1-952): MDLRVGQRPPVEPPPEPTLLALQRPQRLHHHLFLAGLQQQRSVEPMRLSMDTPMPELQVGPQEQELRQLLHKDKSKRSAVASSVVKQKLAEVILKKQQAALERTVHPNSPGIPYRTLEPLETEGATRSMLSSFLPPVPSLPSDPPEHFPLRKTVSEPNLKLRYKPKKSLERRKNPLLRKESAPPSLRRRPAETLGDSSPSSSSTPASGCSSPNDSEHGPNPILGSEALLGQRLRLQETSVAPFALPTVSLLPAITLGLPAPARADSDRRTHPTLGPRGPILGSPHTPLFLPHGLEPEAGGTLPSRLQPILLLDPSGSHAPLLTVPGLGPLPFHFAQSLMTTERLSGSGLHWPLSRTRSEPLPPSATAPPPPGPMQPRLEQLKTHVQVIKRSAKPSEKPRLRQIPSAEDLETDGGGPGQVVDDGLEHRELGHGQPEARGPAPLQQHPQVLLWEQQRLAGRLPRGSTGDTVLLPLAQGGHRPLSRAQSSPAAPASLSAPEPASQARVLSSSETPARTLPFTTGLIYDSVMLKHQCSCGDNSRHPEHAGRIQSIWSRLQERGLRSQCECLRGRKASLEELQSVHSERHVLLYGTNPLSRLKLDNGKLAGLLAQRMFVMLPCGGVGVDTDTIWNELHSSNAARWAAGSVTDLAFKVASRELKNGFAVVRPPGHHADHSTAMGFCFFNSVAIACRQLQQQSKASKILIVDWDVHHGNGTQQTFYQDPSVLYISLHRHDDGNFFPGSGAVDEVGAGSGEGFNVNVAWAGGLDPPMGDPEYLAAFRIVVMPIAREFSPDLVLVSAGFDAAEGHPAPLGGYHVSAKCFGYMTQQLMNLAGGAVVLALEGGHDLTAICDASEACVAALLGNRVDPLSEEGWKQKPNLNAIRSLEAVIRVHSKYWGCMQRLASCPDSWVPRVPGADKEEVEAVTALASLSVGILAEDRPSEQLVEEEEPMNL

DNMT3B/DNMT3L (h) = DNMT3B/DNMT3L (h) (Homo sapiens, UniProt Q9UBC3); assay: Epigenetic enzyme assay, DNA methyltransferases (DNMTs); format: biochemical; settings: for inhibition at 10 µM: read-out: % Inhibition of Control Values
[2] = system: A204 (soft tissue sarcoma); assay: OncoPanel cell proliferation assay (10-day); format: cell-based; settings: Homo sapiens; for EC50: read-out: Cell Count EC50; for IC50: read-out: Cell Count IC50
BAP1 (h) = target: T5, BAP1 (h) (Homo sapiens, UniProt Q92560); assay: Epigenetic enzyme assay, Ubiquitin modifying enzymes; format: biochemical; settings: 10 μM; read-out: % Inhibition of Control Values
T5 sequence (Q92560 1-729): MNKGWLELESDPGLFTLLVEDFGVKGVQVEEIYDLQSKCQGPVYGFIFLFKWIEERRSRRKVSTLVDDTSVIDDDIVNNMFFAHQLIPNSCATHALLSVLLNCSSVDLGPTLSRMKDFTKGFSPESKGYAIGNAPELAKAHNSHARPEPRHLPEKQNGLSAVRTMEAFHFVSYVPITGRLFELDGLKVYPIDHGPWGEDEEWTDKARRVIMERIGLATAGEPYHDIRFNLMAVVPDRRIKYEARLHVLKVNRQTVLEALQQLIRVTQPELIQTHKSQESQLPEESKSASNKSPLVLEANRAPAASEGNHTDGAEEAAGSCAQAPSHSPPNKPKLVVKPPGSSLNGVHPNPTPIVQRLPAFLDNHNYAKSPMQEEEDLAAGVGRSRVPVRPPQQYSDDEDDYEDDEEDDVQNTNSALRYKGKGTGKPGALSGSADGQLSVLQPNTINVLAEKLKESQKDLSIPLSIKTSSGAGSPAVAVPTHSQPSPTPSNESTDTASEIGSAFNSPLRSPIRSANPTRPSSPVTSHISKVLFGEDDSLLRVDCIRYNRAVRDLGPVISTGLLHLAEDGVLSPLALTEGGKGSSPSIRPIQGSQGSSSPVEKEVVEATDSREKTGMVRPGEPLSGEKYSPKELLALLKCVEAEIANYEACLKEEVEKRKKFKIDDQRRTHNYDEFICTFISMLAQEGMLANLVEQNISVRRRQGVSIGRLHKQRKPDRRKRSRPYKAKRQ

[3] = assay year 2014, read-out: % Control Response
[4] = assay year 2015, read-out: % Control Response
[5] = human, human liver microsomes, read-out: % inhibition
[6] = CYP1A (phenacetin sub.), Human liver microsomes, read-out: % Inhibition of Control Values
[7] = A204, Soft Tissue - Sarcoma, read-out: Cell Count GI50

HDAC3 (h), sequence (O15379 whole entry): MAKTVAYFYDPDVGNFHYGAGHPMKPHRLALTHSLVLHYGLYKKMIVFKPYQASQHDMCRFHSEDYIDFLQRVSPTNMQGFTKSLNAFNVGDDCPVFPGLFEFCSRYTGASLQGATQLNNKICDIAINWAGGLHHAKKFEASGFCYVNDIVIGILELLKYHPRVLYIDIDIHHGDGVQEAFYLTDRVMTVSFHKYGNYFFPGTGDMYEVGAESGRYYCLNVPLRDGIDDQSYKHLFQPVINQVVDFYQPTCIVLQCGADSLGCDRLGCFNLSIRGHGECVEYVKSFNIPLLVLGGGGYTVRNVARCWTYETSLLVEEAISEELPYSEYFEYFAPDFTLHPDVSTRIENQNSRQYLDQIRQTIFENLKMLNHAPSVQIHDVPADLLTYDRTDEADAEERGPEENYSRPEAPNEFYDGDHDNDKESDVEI
HDAC3 (h), sequence (Q9Y618 395-489 partner limits assumed): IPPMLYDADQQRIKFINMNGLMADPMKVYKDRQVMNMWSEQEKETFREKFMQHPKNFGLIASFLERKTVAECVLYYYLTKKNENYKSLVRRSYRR

Structure (SMILES): CC(C)=CCC[C@H](CO)[C@@H]1CC[C@@H](C)c2c1cc(C)c(O)c2O [Compound 1, 7,8,18-trihydroxyserrulat-14-ene]
- inhibition at 10 µM (HDAC3 (h)): 1%
- Relative cell count (%) Mean (HCT-8; HCT-8, 3.00E+00 microM): 1.9%
- Relative cell count (%) Mean (HCT-8; HCT-8, 3.00E+01 microM): 0.0%
- Relative cell count (%) Mean (HCT-8; HCT-8, 3.01E−01 microM): 94.9%
- Relative cell count (%) Mean (HCT-8; HCT-8, 3.01E−02 microM): 91.8%
- Relative cell count (%) Mean (HCT-8; HCT-8, 3.02E−03 microM): 104.1%
- Relative cell count (%) Mean (HCT-8; HCT-8, 9.49E+00 microM): 0.0%
- Relative cell count (%) Mean (HCT-8; HCT-8, 9.51E−01 microM): 72.6%
- Relative cell count (%) Mean (HCT-8; HCT-8, 9.52E−02 microM): 100.8%
- Relative cell count (%) Mean (HCT-8; HCT-8, 9.53E−03 microM): 91.0%
- Relative cell count (%) Mean (HCT-8; HCT-8, 9.55E−04 microM): 102.6%
- EC50 (HCT-8): 1230 nM
- GI50 (HCT-8): 1230 nM
- IC50 (HCT-8): 1230 nM
- remaining activity at 10 µM (Histamine H4; [3]): 50%
- remaining activity at 10 µM (Histamine H4; [4]): 12%
- inhibition at 1 µM (CYP1A; [5]): 28%
- inhibition at 10 µM (CYP1A; [5]): 63 to 92%
- inhibition at 1 µM (CYP1A; [6]): 28%
- inhibition at 10 µM (CYP1A; [6]): 92%
- IC50 [1]: < 10000 nM
- inhibition at 10 µM (HDAC7 (h)): -111%
- inhibition at 10 µM (DNMT3B/DNMT3L (h)): 23%
- EC50 ([2]; A204, Soft Tissue - Sarcoma): 520 nM
- GI50 [2, 7]: 520 nM
- IC50 ([2]; A204, Soft Tissue - Sarcoma): 540 nM
- inhibition at 10 µM (BAP1 (h)): 1%

Structure (SMILES): CC(C)=CCC[C@@H]1C(O)Oc2c(C)cc(O)c3c2[C@H]1CC[C@H]3C (stereo partly shown) [Compound 2, 5,18-epoxyserrulat-14-en-8,18-diol]
- inhibition at 10 µM (HDAC3 (h)): 1%
- EC50 (HCT-8): 6270 nM
- GI50 (HCT-8): 6240 nM
- IC50 (HCT-8): 6270 nM
- remaining activity at 10 µM (Histamine H4; [3]): 16%
- remaining activity at 10 µM (Histamine H4; [4]): -1%
- inhibition at 1 µM (CYP1A; [5]): 38%
- inhibition at 10 µM (CYP1A; [5]): 63 to 92%
- inhibition at 1 µM (CYP1A; [6]): 38%
- inhibition at 10 µM (CYP1A; [6]): 63%
- IC50 [1]: < 10000 nM
- inhibition at 10 µM (HDAC7 (h)): -6%
- inhibition at 10 µM (DNMT3B/DNMT3L (h)): 27%
- EC50 ([2]; A204, Soft Tissue - Sarcoma): 8460 nM
- GI50 [2, 7]: 8500 nM
- IC50 ([2]; A204, Soft Tissue - Sarcoma): 8540 nM
- inhibition at 10 µM (BAP1 (h)): -9%

Structure (SMILES): CC(C)=CCC[C@@H]1COc2c(C)cc(O)c3c2[C@H]1CC[C@H]3C [Compound 3, 5,18-epoxy-8-hydroxyserrulat-14-ene]
- inhibition at 10 µM (HDAC3 (h)): 3%
- remaining activity at 10 µM (Histamine H4; [4]): 10%
- inhibition at 10 µM (HDAC7 (h)): 16%
- inhibition at 10 µM (DNMT3B/DNMT3L (h)): -20%
- inhibition at 10 µM (BAP1 (h)): 24%

Structure (SMILES): CC(C)=CCC[C@H](C)[C@@H]1CC[C@@H](C)c2c1cc(C)c(O)c2O [Compound 4, 7,8-dihydroxyserrulat-14-ene]
- EC50 (HCT-8): 12900 nM
- GI50 (HCT-8): 12900 nM
- IC50 (HCT-8): 12900 nM
- inhibition at 10 µM (CYP1A; [5]): 63 to 92%
- inhibition at 1 µM (CYP1A; [6]): 14%
- inhibition at 10 µM (CYP1A; [6]): 85%
- IC50 [1]: < 10000 nM
- GI50 ([2]; A204, read-out: GI50): 684 nM
- EC50 ([2]; A204, Soft Tissue - Sarcoma): 720 nM
- GI50 [2, 7]: 680 nM
- IC50 ([2]; A204, Soft Tissue - Sarcoma): 720 nM

Structure (SMILES): Nc1ncnc2c1ncn2[C@@H]1O[C@H](CSCC[C@H](N)C(=O)O)[C@@H](O)[C@H]1O [SAH]
- IC50 (DNMT3B/DNMT3L (h); read-out: Reference IC50): 45 nM
